Data reported in patent publication US20010005752A1, “Fluorescent dyes (AIDA) for solid phase and solution phase screening” (priority 1998, published 2001).

Tests used:
Assay type in all cases: physicochemical
[1] = Steady-state fluorescence spectroscopy (excitation and emission spectra); details: for Emission range in parenthesis / Emission λmax / Excitation range in parenthesis / Excitation λmax: acetonitrile/2% DMSO
Procedure: Steady-state fluorescence measurements are performed on a SLM 8000C spectro-fluorometer equipped with JD490 photomultipliers and a 450 W Xenon Arclamp (SLM Instruments, Urbana, Ill.).
[…] Spectral bandwidths are set to 1 and 4 nm for excitation and emission, respectively. Spectra are recorded in single photon counting mode. Changes in lamp intensity are corrected with a quantum counter in the reference channel, measured in slow mode. Gain is set to x 100 with a high voltage (HV) of 640 V. Integration time is 2 seconds. For excitation spectra measurements, the emission wavelength is set to 397 nm and the sample is excited from 200 to 400 nm. For recording emission spectra, the sample is excited at 342 nm and the emission is recorded from 350 to 540 nm. The data are averaged over two scans.

[2] = UV-Vis absorption spectroscopy; details: for Absorption λmax / ε (at absorption λmax): acetonitrile/2% DMSO
Procedure: UV-Vis absorption spectroscopy is performed on a Cary 1E spectrophotometer. […]
[…] […] From each stock solution, 5 dilutions with concentrations of 2.5 μm, 10 μM, 17 μM, 25 μm and 35 μM are made. UV-spectra of each dilution are recorded from 200 to 400 nm, using a quarz cuvette with a pathlength of 1 cm. […] A linear fit is carried out for each series of measurements. The extinction coefficient ε at 337 nm is given by the slope of the linear regression.

[3] = Picosecond time-resolved fluorescence spectroscopy (fluorescence lifetime); details: 25 μM in THF, emission 400 nm
Procedure: Picosecond time-resolved fluorescence measurements are recorded according to the single photon counting technique [Lakowicz, 1983 p 52-93, 112-153, 156-185]. An Ar^+-pumped Ti:Sapphire laser (model MIRA 900, Coherent, Santa Clara, USA) provided under mode-locked conditions ultrashort pulses (FWHM=150 fs) with a frequency of 75 MHz. To reduce the repetition rate to 4.7 MHz, a pulse picker (model 9200, Coherent, Santa Clara, USA) is inserted into the beam. […] Fluorescence photons are collected in a Spex 1681 single grating monochromator (Spex, Edison, USA) and detected with the Hamamatsu R3809U microchannel plate (Hamamatsu, Shimokanzo, Japan). […] The voltage values which correspond to the time passed between excitation and emission of a fluorescence photon in a single experiment are stored in the Spectrum Master 921 (Ortec, Oak Ridge, USA) which is connected to the multichannel emulation program Maestro (Ortec, Oak Ridge, USA). […]
where A represents the background noise of the experiment, bi represent the pre-exponential terms of the according fluorescence lifetimes τi, and δt is an optional temporal shift term to compensate for shifts of the instrument response. […]
The time resolved decay of 4e is determined at a concentration of 25 μM in THF. Excitation is from 350 nm 380 nm, fluorescence emission is detected at 400 nm with slit widths set to 0.5 nm. […]

[4] = Calculation of R0 (Förster distance) between 4e and NATA; details: 4e acceptor, NATA donor, THF
Procedure: The emission spectrum of NATA is measured at a concentration of 15 μM in THF, using a 750 μl quartz cuvette with an optical pathlength of 10 mm. Measuring mode is single photon counting. Changes in lamp intensity are corrected using a quantum counter in the reference channel. The gain is set at x 100, the high voltage applied was 640 V and the integration time is 2 seconds. The fluorescence emission is corrected for photometric accuracy of the system by multiplication with correction factors obtained by standard lamp calibration. Slit widths are set at 1 nm and 4 nm for excitation and emission, respectively. […] R0 is calculated using the formula R0=(9.97×10^3)(Jκ^2η^-4 θNATA)^1/6 Å where κ^2 is an orientation factor of the relative orientation in space of the transition dipoles of the donor and acceptor chromophores. […] J is the spectral overlap integral which can be approximated from […](λ)λ^4Δλ (2) where FNATA is the corrected fluorescence emission of the donor, the sum normalized to unity, ε4e is the extinction coefficient of the acceptor at wavelength λ, and DS is the incremental detection range.

[5] = Quantum yield determination with chininsulfate as standard; details: 25 μM in THF
Procedure: The quantum yield of 4e is determined using chininsulfate as a standard [Melhuish, 1961].
The point of intersection between the UV spectra of 4e and chininsulfate (CS) is determined by measurements of a solution of the two substances on a Cary 1E spectrophotometer. Concentrations were 25 μM in THF for 4e and 50 mM in 1N H2SO4 for CS. Spectra are recorded from 260 nm to 380 nm using a quartz cuvette with an optical pathlength of 10 mm, and blank corrected by subtracting the solvent absorption. The point of intersection of the two resulting UV spectra is determined to be at 348.3 nm, corresponding to 352.8 nm on the SLM-8000 C fluorometer due to monochromator shifts. The fluorescence emission spectra of 4e and CS are recorded using the same solutions as for the UV-measurements in single photon counting mode. Lamp intensity changes are corrected with a quantum counter in the reference channel, measured in slow mode. Gain is set at x 100, high voltage applied was 830 V. Integration time was 0.5 seconds.
Spectral bandwidths are set at 1 nm for excitation, 2 nm and 4 nm for emission.
For the recording of the emission spectra, excitation is set to 352.8 and emission is monitored from 360 to 550 nm for IAE and 360 to 650 nm for CS.

Emission range in parenthesis [1]	Emission λmax [1] [nm]	Excitation range in parenthesis [1]	Excitation λmax [1] [nm]	Absorption λmax [2] [nm]	ε (at absorption λmax) [2] [M⁻¹ cm⁻¹]	fluorescence lifetime (mono-exponential decay) [3] [nsec]	relative amplitude of lifetime component [3] [%]	R0 (Förster distance) of the dye pair with NATA [4]	quantum yield [5]	maximal emission intensity (wavelength) ([1]; 1 μM in THF, excitation at 342 nm) [nm]	Stoke shift ([1]; THF)	absorption maximum ([2]; THF) [nm]	absorption coefficient ε at 337 nm ([2]; THF, 337 nm) [M⁻¹ cm⁻¹]	fluorescence emission (relative to 1,3-diaryl-1H-indazoles) [1]	Compound	photophysical and photochemical stability [1]
470-670 nm	554	320-400 nm	368	354	25482	–	–	–	–	–	–	–	–	–	O=C(O)c1ccc(-n2nc(-c3ccc([N+](=O)[O-])cc3)c3ccccc32)cc1 [4f]	–
360-480 nm	398	310-360 nm	337	335	34134	1.055±0.117	99.73	25.2 - 26.3 Å	0.591	403	about 60 nm	342	29926	–	C=CCOC(=O)c1ccc(-c2nn(-c3ccc(C(=O)O)cc3)c3ccccc23)cc1 [4e, 4-[3-(4-allyloxycarbonylphenyl)-1H-indazol-1-yl]-benzoic acid]	photophysically and photochemically stable
370-600 nm	439	300-350 nm	330	327	27650	–	–	–	–	–	–	–	–	–	COc1ccc(-c2nn(-c3ccc(C(=O)O)cc3)c3cc(OC)ccc23)cc1 [4h]	–
350-450 nm	364	310-350 nm	328	328	29157	–	–	–	–	–	–	–	–	–	O=C(O)c1ccc(-n2nc(-c3ccc(Cl)cc3)c3ccc(Cl)cc32)cc1 [4g]	–
450-620 nm	524	320-360 nm	331	328	22622	–	–	–	–	–	–	–	–	–	O=C(O)c1ccc(-c2nn(-c3ccc(C(=O)O)cc3)c3ccc([N+](=O)[O-])cc23)cc1 [4k, 4-[3-(4-carboxy-phenyl)-5-nitro-1H-indazol-1-yl]-benzoic Acid]	–
490-700 nm	565	340-420 nm	370	358	24967	–	–	–	–	–	–	–	–	–	Cc1ccc2c(-c3ccc([N+](=O)[O-])cc3)nn(-c3ccc(C(=O)O)cc3)c2c1 [4j]	–
450-620 nm	527	310-360 nm	331	326	17252	–	–	–	–	–	–	–	–	–	NC(=O)c1ccc(-c2nn(-c3ccc(C(=O)O)cc3)c3ccc([N+](=O)[O-])cc23)cc1 [4l, 4-[3-(4-carbamoyl-phenyl)-5-nitro-1H-indazol-1-yl]-benzoic Acid]	–
470-670 nm	551	320-420 nm	374	361	31261	–	–	–	–	–	–	–	–	–	O=C(O)c1ccc(-c2nn(-c3ccc([N+](=O)[O-])cc3)c3ccccc23)cc1 [4i]	–

Further lines, the molecule ahead of its results:

Compound	Emission range in parenthesis [1]	Emission λmax [1] [nm]	Excitation range in parenthesis [1]	Excitation λmax [1] [nm]	Absorption λmax [2] [nm]	ε (at absorption λmax) [2] [M⁻¹ cm⁻¹]	fluorescence lifetime (mono-exponential decay) [3] [nsec]	relative amplitude of lifetime component [3] [%]	R0 (Förster distance) of the dye pair with NATA [4]	quantum yield [5]	maximal emission intensity (wavelength) ([1]; 1 μM in THF, excitation at 342 nm) [nm]	Stoke shift ([1]; THF)	absorption maximum ([2]; THF) [nm]	absorption coefficient ε at 337 nm ([2]; THF, 337 nm) [M⁻¹ cm⁻¹]	fluorescence emission (relative to 1,3-diaryl-1H-indazoles) [1]	photophysical and photochemical stability [1]
NC(=O)c1ccc(-c2nn(-c3ccc(C(=O)O)cc3)c3ccccc23)cc1 [4c, 4-[3-(4-carbamoyl-phenyl)-1H-indazol-1-yl]-benzoic acid]	360-500 nm	393	300-360 nm	334	332	30665	–	–	–	–	–	–	–	–	–	–
O=C(O)c1ccc(-c2nn(-c3ccc(C(=O)O)cc3)c3ccccc23)cc1 [4b, 1,3-Bis-(4-carboxyphenyl)-1H-indazole]	360-500 nm	396	300-360 nm	335	334	29152	–	–	–	–	–	–	–	–	–	–
COC(=O)c1ccc(-c2nn(-c3ccc(C(=O)O)cc3)c3ccccc23)cc1 [4d]	360-500 nm	396	300-360 nm	336	334	33114	–	–	–	–	–	–	–	–	–	–
O=C(O)c1ccc(-n2nc(-c3ccccc3)c3ccccc32)cc1 [4a]	360-450 nm	396	300-340 nm	328	328	22569	–	–	–	–	–	–	–	–	–	–
O=C(O)c1ccc(-n2nc(-c3ccccc3)c3ccc4ccccc4c32)cc1 [4-(3-phenyl-benzo[g]indazol-1-yl)-benzoic acid, reference compound]	–	–	–	–	–	–	–	–	–	–	–	–	–	–	dramatically reduced	–
